These are literature values, as cited in patent US5972375A, “Polyvinyl alcohol compositions prepared by crosslinking in a freezing step” (Implico BV, priority 1992, dated 1999).

Like-named read-outs stand apart in the source and are kept apart here. Where only a bound is given, the exact number is not on record here.

Data set [1] deals with Rat.
Data set [2] deals with Rat. This is another data set of the same source.
Data set [3] has as its system Mouse.
Data set [4] concerns Dog.
In data set [5] the test system is Primate.

In the case of `CC(C)=O` [Acetone], the “Oral absorption LD50” value in data set [1] (oral) is 9800 mg/kg.
For `CN(C)C=O` [DMS, Dimethylformamide], the “Oral absorption LD50” value in data set [1] (oral) is 2800 mg/kg.
With `C[S+](C)[O-]` [DMSO, dimethyl sulphoxide], the figures for the “Inhalation, non-lethal at” value in data set [2] (24 hr) and in data set [2] (40 hr) were 2900 mg/m^3 and 2000 mg/m^3, respectively. Further, the “Intravenous route LD50” value in data set [2] (intravenous) is 5.4 g/kg of Body weight; in data set [4] (intravenous) it was 2.5 g/kg of Body weight; in data set [5] (intravenous) it was 4 g/kg of Body weight. Further, the “Percutaneous route LD50” value was 40 g/kg of Body weight in data set [2] (percutaneous (undiluted)), 50 g/kg of Body weight in data set [3], > 11 g/kg of Body weight in data set [4] (percutaneous) and > 11 g/kg of Body weight in data set [5] (percutaneous). Besides, the “Oral route LD50” value in data set [4] (oral) is on record as > 10 g/kg of Body weight; in data set [5] (oral), > 4 g/kg of Body weight. In addition, the “Oral absorption LD50” value in data set [1] (oral) was 19700 mg/kg.
For the compound `CCO` [Ethanol], the “Oral absorption LD50” value in data set [1] (in vivo, po) was 7100 mg/kg.
Turning to `OCC(O)CO` [Glycerol], the “Oral absorption LD50” value in data set [1] (in vivo, po) is 12600 mg/kg.
For `CN1CCCC1=O` [N-Methylpyrrolidone], the “Oral absorption LD50” value in data set [1] (oral) was 4200 mg/kg.
